Data taken from US5817640A (Gensia Pharmaceuticals, priority 1995, dated 1998).
“Also recorded” adds a separate entry of the source.

System: patients undergoing coronary artery bypass graft (CABG) surgery
Assay: Ejection fraction and hemodynamics (Phase 2)
Type: in vivo, human
Experimental: During surgery, anesthesia was maintained by continuous infusion of fentanyl and midazolam. Routine clinical parameters were recorded using standard operating room monitoring equipment. Continuous 2-lead Holter ECG and TEE data were recorded. Standard surgical procedures (e.g., aorta cross-clamping, crystalloid cardioplegia, cardio-pulmonary bypass, hypothermia) were used. Anastomoses were constructed, aorta cross-clamp removed and patients were discontinued from bypass when body temperature was 37° C. The quality of anastomosis was judged by the surgeon. Difficulty in weaning from bypass was judged by need for one or more of the following: pacemaker, return to bypass, balloon pump or vasopressor administration. Hemodynamic measurements, including heart rate, arterial blood pressure, pulmonary capillary wedge pressure and cardiac output, were recorded before sternotomy, 15 and 30 min after bypass and upon chest closure. Radial artery and pulmonary artery pressures, myocardial and whole body temperature, O2 saturation, end-tidal CO2 and arterial blood gases were measured, and ECG recordings were obtained as clinically indicated. Hemodynamic variables (blood pressure, heart rate, pulmonary capillary wedge pressure) were controlled within 20% of baseline using prescribed regimens.
During the post-operative period through the first post-operative day, morphine and midazolam were used for sedation and analgesia. The cardiovascular medications required were recorded. During this period, continuous ECG monitoring (Holter) was performed for up to 48 hours. Hemodynamic measurements (pulmonary artery pressures and cardiac output) were obtained at 2, 4, 8 and 12 hours (in some cases at 24 and 48 hours) and also whenever clinically indicated.
A twelve-lead ECG was obtained on arrival in the intensive care unit and during post-operative days 1, 2, 3 and at hospital discharge. Creatinine phosphokinase MB band (CK-MB) was obtained every 8 hours for 48 hours and when indicated. Radio-nuclide ventriculography for ejection fraction and wall motion score was done about 14 days post-operation and as close to hospital discharge as possible. Other tests and measurements (e.g., chest x-ray, pulmonary artery wedge pressure (PCWP) were performed when clinically indicated for diagnosis or evaluation of myocardial infarction, or congestive heart failure. Timing and dose of all cardiovascular medications within 48 hours after surgery were recorded. The total dose of all analgesics during the 24-hour post-operative period was recorded. Fluid intake and output (e.g., blood replacement and urine output) were recorded for 48 hours. The type and duration of inotropic support and antiarrhythmic intervention required were recorded through 24 hours after surgery. Two-channel Holter recordings were obtained during 3 periods, the eight hours prior to intubation, from intubation through the end of surgery, and for an additional 24-48 hours after surgery.
9. Election Fraction. Pre-operative and post-operative ejection fractions were measured using different methodologies; therefore, changes could not be analyzed statistically. Group mean injection fractions and pre- and post-CABG are presented and apparent differences between groups were described.
Results for ejection fraction, measured on all patients pre-operatively (by angiography) and at the time of discharge from the intensive care unit (by radionuclide ventriculography) are given in Table 10 below.

**Q.** What does the source list for NC(=O)c1ncn([C@@H]2O[C@H](CO)[C@@H](O)[C@H]2O)c1N [AICA riboside, 5-amino-1-β-D-ribofuranosyl-imidazole-4-carboxamide]?
**A.** Ejection fraction (0.05 mg/kg/min group, pre-bypass (pre-operative, LV angiography), placebo 57.6 ± 2.0, p=0.54): 55.0 ± 2.3%; Ejection fraction (0.05 mg/kg/min, post-bypass (radionuclide ventriculography), placebo 56.5 ± 2.3, p=0.28): 59.0 ± 2.0%; Ejection fraction (0.10 mg/kg/min group, pre-bypass (pre-operative, LV angiography), placebo 57.6 ± 2.0, p=0.54): 58.4 ± 2.4%; Ejection fraction (0.10 mg/kg/min, post-bypass (radionuclide ventriculography), placebo 56.5 ± 2.3, p=0.28): 61.3 ± 1.7%; Effect on heart rate and blood pressure (CABG surgery): no effects of treatment with AICA riboside were seen on these parameters; Ejection fraction vs placebo (post-operative, not statistically significant): higher mean ejection fractions post-bypass than the placebo group; also recorded: trend towards higher ejection fraction in the high dose AICA riboside group
